Experimental data taken from ChEMBL document CHEMBL4651402, “Screening of ~5500 FDA-approved drugs and clinical candidates for anti-SARS-CoV-2 activity” (2021).

Test system: SARS-CoV-2
Test: microbe, parasite or virus in culture
Conditions: Severe acute respiratory syndrome coronavirus 2, Vero C1008, 48 h

| SMILES | IC50 | IC50 (read-out: pIC50 (converted)) |
| --- | --- | --- |
| C[C@H](N[C@@H](CCc1ccccc1)C(=O)O)C(=O)N1CCC[C@H]1C(=O)O [ENALAPRILAT ANHYDROUS] | > 20 µM | > 20 µM |
| CCCCCCN1CCN(/C(=N/CC(C)C)c2ccccc2)CC1 | > 20 µM | > 20 µM |
| CC(=O)OC[C@@]1(O)C[C@@]23CC[C@@H]4c5ccoc5CC[C@@]4(C)[C@@H]2CC[C@@H]1C3 [CAFESTOL ACETATE] | > 20 µM | > 20 µM |
| CC(=O)SC[C@@H](C)C(=O)N1CCC[C@H]1C(=O)N[C@@H](Cc1ccccc1)C(=O)O | > 20 µM | > 20 µM |
| Nc1c2c(nc3ccccc13)CCCC2 [TACRINE] | > 20 µM | > 20 µM |
| Clc1ccc(C(Cn2ccnc2)OCc2csc3c(Cl)cccc23)c(Cl)c1 (configuration not stated) [SERTACONAZOLE] | > 20 µM | > 20 µM |
| O=C(OCc1ccccc1)c1ccccc1 [BENZYL BENZOATE] | > 20 µM | > 20 µM |
| CC1(O)CCC2C3CCC4=CC(=O)CCC4C3CCC21C (configuration not stated) | > 20 µM | > 20 µM |
| CC(=O)OC[C@H]1O[C@@H](S)[C@H](OC(C)=O)[C@@H](OC(C)=O)[C@@H]1OC(C)=O | > 20 µM | > 20 µM |
| Nc1ccncc1 [DALFAMPRIDINE] | > 20 µM | > 20 µM |
| CC=C(C)C(=O)O[C@@H]1c2c(ccc3ccc(=O)oc23)OC(C)(C)[C@@H]1OC(C)=O | > 20 µM | > 20 µM |
| CCC(Br)(CC)C(=O)NC(N)=O [CARBROMAL] | > 20 µM | > 20 µM |
| CCCCN(CCCC)CCCOC(=O)c1ccc(N)cc1 [BUTACAINE] | > 20 µM | > 20 µM |
| COCC1=C(C(=O)OC(C)OC(=O)OC(C)C)N2C(=O)[C@@H](NC(=O)/C(=N\OC)c3csc(N)n3)[C@H]2SC1 (some centres not stated) [CEFPODOXIME PROXETIL] | > 20 µM | > 20 µM |
| COc1ccc(C(CN(C)C)C2(O)CCCCC2)cc1 (configuration not stated) [VENLAFAXINE] | > 20 µM | > 20 µM |
| CN(C)CC(c1ccc(O)cc1)C1(O)CCCCC1 (configuration not stated) [DESVENLAFAXINE] | > 20 µM | > 20 µM |
| CC(=O)[C@H]1CC[C@H]2[C@@H]3C=CC4=CC(=O)CC[C@@]4(C)[C@@H]3CC[C@]12C [DYDROGESTERONE] | > 20 µM | > 20 µM |
| CN1C(=O)CC(c2ccccc2)C1=O (configuration not stated) [PHENSUXIMIDE] | > 20 µM | > 20 µM |
| Cc1ccc([C@@H]2O[C@H](CO)[C@@H](O)[C@H](O)[C@H]2O)cc1Cc1ccc(-c2ccc(F)cc2)s1 [CANAGLIFLOZIN ANHYDROUS] | > 20 µM | > 20 µM |
| COc1cccc(C=O)c1O | > 20 µM | > 20 µM |
| CO[C@H]1C=C2CCN(C)[C@H]2C2c3cc4c(cc3C(=O)O[C@@H]21)OCO4 (some centres not stated) | > 20 µM | > 20 µM |
| Cn1c(=O)c2[nH]c(Br)nc2n(C)c1=O [PAMABROM] | > 20 µM | > 20 µM |
| CN1CCc2cccc3c2[C@H]1Cc1ccc(O)c(O)c1-3 [APOMORPHINE] | > 20 µM | > 20 µM |
| O=C(O)Cc1sc(-c2ccccc2)nc1-c1ccc(Cl)cc1 [FENTIAZAC] | > 20 µM | > 20 µM |
| CCC1(C)OC(=O)N(C)C1=O (configuration not stated) [PARAMETHADIONE] | > 20 µM | > 20 µM |
| CC(=O)N[C@@H](Cc1ccc(O)cc1)C(=O)O [ACETYL TYROSINE] | > 20 µM | > 20 µM |

| SMILES | IC50 | IC50 (read-out: pIC50 (converted)) |
| --- | --- | --- |
| CC1=C(/C=C/C(C)=C/C=C/C(C)=C/C(=O)O)C(C)(C)CCC1 [TRETINOIN] | > 20 µM | > 20 µM |
| CN(C)CCOC(C)(c1ccccc1)c1ccccn1 (configuration not stated) [DOXYLAMINE] | > 20 µM | > 20 µM |
| CC1=Nc2ccc(Cl)cc2S(=O)(=O)N1 [DIAZOXIDE] | > 20 µM | > 20 µM |
| C=C(C)[C@@H]1CC[C@]2(C(=O)O)CC[C@]3(C)[C@H](CCC4[C@@]5(C)CC[C@@H](O)C(C)(C)C5CC[C@]43C)C12 (some centres not stated) | > 20 µM | > 20 µM |
| CC1(C)CC=C(c2nc(C3CC(C)(C)OC(C)(C)C3)ccc2NC(=O)c2nc(C#N)c[nH]2)CC1 [EDICOTINIB] | > 20 µM | > 20 µM |
| C=C(c1ccc(C(=O)O)cc1)c1cc2c(cc1C)C(C)(C)CCC2(C)C [BEXAROTENE] | > 20 µM | > 20 µM |
| CCOc1ccc(NC(=O)CC(C)O)cc1 (configuration not stated) [BUCETIN] | > 20 µM | > 20 µM |
| NC(=O)c1ccc[n+]([C@@H]2O[C@H](CO)[C@@H](O)[C@H]2O)c1 [NICOTINAMIDE RIBOSIDE] | > 20 µM | > 20 µM |
| Cc1ccc(S(=O)(=O)NC(=O)NN2CCCCCC2)cc1 [TOLAZAMIDE] | > 20 µM | > 20 µM |
| CC(C)=CCC1=C(O)C(=O)c2ccccc2C1=O [LAPACHOL] | > 20 µM | > 20 µM |
| CC1CCC(C(C)C)C(O)C1 (configuration not stated) [MENTHOL] | > 20 µM | > 20 µM |
| O=C1CCc2cc(OCCCCc3nnnn3C3CCCCC3)ccc2N1 [CILOSTAZOL] | > 20 µM | > 20 µM |
| CC(C)(C)C(O)(COc1ccc(Cl)cc1)Cn1cncn1 (configuration not stated) | > 20 µM | > 20 µM |
| N#CC(c1ccc(Cl)cc1)c1c(Cl)cc(-n2ncc(=O)[nH]c2=O)cc1Cl (configuration not stated) [DICLAZURIL] | > 20 µM | > 20 µM |
| CC1(c2ccccc2)Cc2cc(OCC(=O)O)c(Cl)c(Cl)c2C1=O (configuration not stated) [INDACRINONE] | > 20 µM | > 20 µM |
| O=c1cc(-c2ccccc2)oc2c(O)c(O)ccc12 [7,8-DIHYDROXYFLAVONE] | > 20 µM | > 20 µM |
| O=C(O)c1ccc(NC2OC(CO)C(O)C(O)C2O)cc1 (configuration not stated) | > 20 µM | > 20 µM |
| CC(C)(C)NCC(O)COc1cccc2c1CC(O)C(O)C2 (configuration not stated) [NADOLOL] | > 20 µM | > 20 µM |
| O=S(=O)(O)c1cc(O)ccc1O [CALCIUM DOBESILATE] | > 20 µM | > 20 µM |
| OC(C1=NCCN1)(c1ccc(Cl)cc1)c1ccccn1 (configuration not stated) [DAZADROL] | > 20 µM | > 20 µM |
| CN1C(C(=O)Nc2ccccn2)=C(O)c2ccccc2S1(=O)=O [PIROXICAM] | > 20 µM | > 20 µM |
| Cc1ccc2nc(N3CCS(=O)(=O)c4ccccc4C3)nc(NCC3(N)COC3)c2c1 [ZIRESOVIR] | > 20 µM | > 20 µM |
| CC(=O)Nc1cccc(-n2c(=O)n(C3CC3)c(=O)c3c(Nc4ccc(I)cc4F)n(C)c(=O)c(C)c32)c1 [TRAMETINIB] | > 20 µM | > 20 µM |
| CC(C)(Oc1ccc(C2CC2(Cl)Cl)cc1)C(=O)O (configuration not stated) [CIPROFIBRATE] | > 20 µM | > 20 µM |
| Nc1ncn([C@H]2C[C@H](O)[C@@H](CO)O2)c(=O)n1 [DECITABINE] | > 20 µM | > 20 µM |
| CC(=O)O[C@]1(C(C)=O)CC[C@H]2[C@@H]3C=C(Cl)C4=CC(=O)[C@@H]5C[C@@H]5[C@]4(C)[C@H]3CC[C@@]21C [CYPROTERONE ACETATE] | > 20 µM | > 20 µM |

| SMILES | IC50 | IC50 (read-out: pIC50 (converted)) |
| --- | --- | --- |
| CC(=O)Nc1c(I)c(NC(C)=O)c(I)c(C(=O)O)c1I [DIATRIZOIC ACID] | > 20 µM | > 20 µM |
| Cc1cnc(NC(=O)C2=C(O)c3ccccc3S(=O)(=O)N2C)s1 [MELOXICAM] | > 20 µM | > 20 µM |
| CO[C@H]1C[C@@H]2CC[C@@H](C)[C@@](O)(O2)C(=O)C(=O)N2CCCC[C@H]2C(=O)O[C@H]([C@H](C)C[C@@H]2CC[C@@H](O)[C@H](OC)C2)CC(=O)[C@H](C)/C=C(\C)[C@@H](O)[C@@H](OC)C(=O)[C@H](C)C[C@H](C)/C=C/C=C/C=C/1C [SIROLIMUS] | > 20 µM | > 20 µM |
| O=C(Nc1cccc(C2=NCCN2)c1)Nc1cccc(C2=NCCN2)c1 [IMIDOCARB] | > 20 µM | > 20 µM |
| Cc1cc(-c2ccccc2)nnc1NCCN1CCOCC1 [MINAPRINE] | > 20 µM | > 20 µM |
| NC[C@@H]1OB(O)c2c(OCCCO)cccc21 | > 20 µM | > 20 µM |
| CN1CCC/C1=N\C(=N\c1ccccc1)N1CCCC1 [PIROGLIRIDE] | > 20 µM | > 20 µM |
| Cc1nc2n(c(=O)c1CCN1CCC(C(=O)c3ccc(F)cc3)CC1)CCS2 [SETOPERONE] | > 20 µM | > 20 µM |
| Cc1cccc(-c2[nH]c(CNc3ccccc3F)nc2-c2ccc3ncnn3c2)n1 [VACTOSERTIB] | > 20 µM | > 20 µM |
| CC(CNC1CCCCC1)OC(=O)c1ccccc1 (configuration not stated) [HEXYLCAINE] | > 20 µM | > 20 µM |
| CNC(C)Cc1ccccc1OC (configuration not stated) [METHOXYPHENAMINE] | > 20 µM | > 20 µM |
| CCCC(CCC)C(=O)O[C@H]1C[C@H]2CC[C@@H](C1)[N+]2(C)C [ANISOTROPINE] | > 20 µM | > 20 µM |
| CNC(=O)c1ccc(-c2cnc3ncc(Cc4ccc5ncccc5c4)n3n2)cc1F [CAPMATINIB] | > 20 µM | > 20 µM |
| Cc1cccc(C)c1NC(=O)C(C)N (configuration not stated) [TOCAINIDE] | > 20 µM | > 20 µM |
| CCCn1c(=O)c2nc(C34CC5CC(CC(C5)C3)C4)[nH]c2n(CCC)c1=O | > 20 µM | > 20 µM |
| CC(C)c1c(CN(C)C(C)Cc2ccccc2)n(C)n(-c2ccccc2)c1=O (configuration not stated) [FAMPROFAZONE] | > 20 µM | > 20 µM |
| OC(c1ccccc1)(c1ccccc1)C1CCNCC1 [AZACYCLONOL] | > 20 µM | > 20 µM |
| CN(C)C[C@H]1CCCC[C@]1(O)c1cccc(O)c1 [O-DESMETHYL TRAMADOL] | > 100 µM | > 100 µM |
| [O-][n+]1cccc(C(Cl)=NOC[C@H](O)CN2CCCCC2)c1 | > 20 µM | > 20 µM |
| N=C(N)NC(=O)Cc1c(Cl)cccc1Cl [GUANFACINE] | > 20 µM | > 20 µM |
| COc1ccc([C@@H]2Sc3ccccc3N(CCN(C)C)C(=O)[C@@H]2OC(C)=O)cc1 [DILTIAZEM] | > 20 µM | > 20 µM |
| OC1CN(CCCOCCc2ccc3sccc3c2)C1 [T-817] | > 20 µM | > 20 µM |
| CC/C=C/C/C=C/C/C=C/C/C=C/C/C=C/CCCC(=O)O | > 20 µM | > 20 µM |
| COc1ccc(-c2cc(=O)c3ccccc3o2)cc1 [4'-METHOXYFLAVONE] | > 20 µM | > 20 µM |
